# In patent US20250320193A1, “OXOISOINDOLINYL SUBSTITUTED PIPERIDINEDIONE DERIVATIVE AND USE THEREOF” (GLUETACS THERAPEUTICS (SHANGHAI) CO., LTD., priority 2022, published 2025):
# Assays:
# [1] = target: human Cereblon WT GST-tagged protein (Homo sapiens (Human), UniProt Q96SW2); experiment: CRBN-binding affinity, HTRF (CEREBLON BINDING kit, CISBIO); details: HTRF inhibitory activity
# Method in brief: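 HTRF competition format: test compound displaces Thalidomide-Red from GST-tagged human Cereblon WT, detected with a Eu-labelled anti-GST antibody. Percent CRBN binding inhibition was derived from the 620 nm signal, normalized to solvent-control and protein-free blank wells.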
# [2] = target: IKZF1 (Homo sapiens (Human), UniProt Q13422+Q96SW2); experiment: Western blot, substrate protein expression in hPBMC: IKZF1; type: cell-based; details: hPBMC, compound 500 nM, 24 hours, Western blot
# IKZF1, sequence (Q13422 whole entry): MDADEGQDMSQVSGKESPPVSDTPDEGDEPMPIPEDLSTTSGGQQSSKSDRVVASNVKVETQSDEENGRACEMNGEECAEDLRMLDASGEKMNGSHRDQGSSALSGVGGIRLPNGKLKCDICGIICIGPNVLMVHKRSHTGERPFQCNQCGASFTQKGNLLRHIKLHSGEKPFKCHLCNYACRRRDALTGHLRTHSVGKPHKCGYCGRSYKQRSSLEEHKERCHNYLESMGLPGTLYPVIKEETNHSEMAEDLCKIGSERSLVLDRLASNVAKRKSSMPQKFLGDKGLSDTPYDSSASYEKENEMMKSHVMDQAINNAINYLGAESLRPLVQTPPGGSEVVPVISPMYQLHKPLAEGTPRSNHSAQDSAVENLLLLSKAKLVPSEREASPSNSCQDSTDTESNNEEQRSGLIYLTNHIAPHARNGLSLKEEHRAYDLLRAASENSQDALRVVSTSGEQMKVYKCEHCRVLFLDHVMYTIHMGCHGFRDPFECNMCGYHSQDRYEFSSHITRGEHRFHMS
# IKZF1, sequence (Q96SW2 whole entry): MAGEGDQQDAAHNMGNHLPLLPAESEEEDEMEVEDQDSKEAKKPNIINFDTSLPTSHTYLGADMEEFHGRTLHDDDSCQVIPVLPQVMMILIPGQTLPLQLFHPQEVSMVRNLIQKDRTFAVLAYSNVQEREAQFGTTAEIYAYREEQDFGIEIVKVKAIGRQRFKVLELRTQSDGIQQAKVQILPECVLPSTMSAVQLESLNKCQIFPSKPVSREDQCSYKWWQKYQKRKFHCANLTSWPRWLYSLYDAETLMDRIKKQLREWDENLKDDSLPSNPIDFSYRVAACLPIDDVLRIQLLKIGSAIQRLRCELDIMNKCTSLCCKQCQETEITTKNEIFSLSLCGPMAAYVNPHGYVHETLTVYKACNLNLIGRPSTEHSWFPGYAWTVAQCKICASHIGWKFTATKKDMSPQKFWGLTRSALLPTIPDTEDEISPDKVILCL
# IKZF1, sequence (Q16531 whole entry partner): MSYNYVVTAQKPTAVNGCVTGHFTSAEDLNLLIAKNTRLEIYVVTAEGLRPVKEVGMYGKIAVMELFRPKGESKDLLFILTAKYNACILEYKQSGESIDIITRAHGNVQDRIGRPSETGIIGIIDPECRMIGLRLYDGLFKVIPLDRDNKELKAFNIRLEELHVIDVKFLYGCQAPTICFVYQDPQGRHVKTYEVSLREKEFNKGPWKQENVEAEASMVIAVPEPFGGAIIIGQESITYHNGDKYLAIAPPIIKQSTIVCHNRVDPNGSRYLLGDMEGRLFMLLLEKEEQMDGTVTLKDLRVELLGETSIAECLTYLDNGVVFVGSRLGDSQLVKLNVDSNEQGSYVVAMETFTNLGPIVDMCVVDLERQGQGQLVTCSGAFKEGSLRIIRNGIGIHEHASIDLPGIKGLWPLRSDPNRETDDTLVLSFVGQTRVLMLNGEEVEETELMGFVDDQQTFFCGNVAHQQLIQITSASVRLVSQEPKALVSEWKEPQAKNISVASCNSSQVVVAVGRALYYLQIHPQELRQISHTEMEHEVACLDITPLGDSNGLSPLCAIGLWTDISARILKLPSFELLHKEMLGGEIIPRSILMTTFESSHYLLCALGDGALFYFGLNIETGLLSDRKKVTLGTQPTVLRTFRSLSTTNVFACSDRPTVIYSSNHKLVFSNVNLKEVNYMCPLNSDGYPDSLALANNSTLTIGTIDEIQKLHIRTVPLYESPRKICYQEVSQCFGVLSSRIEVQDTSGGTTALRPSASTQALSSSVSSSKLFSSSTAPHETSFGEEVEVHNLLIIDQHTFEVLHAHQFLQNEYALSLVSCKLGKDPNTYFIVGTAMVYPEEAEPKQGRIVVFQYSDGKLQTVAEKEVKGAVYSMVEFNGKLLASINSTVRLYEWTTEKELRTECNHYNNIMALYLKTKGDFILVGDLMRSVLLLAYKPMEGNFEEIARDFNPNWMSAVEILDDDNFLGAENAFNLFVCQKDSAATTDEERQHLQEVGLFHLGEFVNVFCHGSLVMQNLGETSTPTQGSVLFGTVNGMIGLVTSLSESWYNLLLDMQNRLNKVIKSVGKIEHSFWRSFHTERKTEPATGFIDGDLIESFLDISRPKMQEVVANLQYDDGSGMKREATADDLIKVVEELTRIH
# Method in brief: (§1)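 hPBMC, 1×10^6 cells/mL, 24 h compound exposure; RIPA lysis, BCA protein assay, SDS-PAGE, NC membrane immunoblot. Densitometry vs internal control → % protein remaining; degradation % = 100% − remaining; DC50 = conc. at 50% of DMSO band signal.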
# [3] = target: IKZF3 (Homo sapiens (Human), UniProt Q96SW2+Q9UKT9); experiment: Western blot, substrate protein expression in hPBMC: IKZF3; type: cell-based; details: hPBMC, compound 500 nM, 24 hours, Western blot
# IKZF3, sequence (Q9UKT9 whole entry): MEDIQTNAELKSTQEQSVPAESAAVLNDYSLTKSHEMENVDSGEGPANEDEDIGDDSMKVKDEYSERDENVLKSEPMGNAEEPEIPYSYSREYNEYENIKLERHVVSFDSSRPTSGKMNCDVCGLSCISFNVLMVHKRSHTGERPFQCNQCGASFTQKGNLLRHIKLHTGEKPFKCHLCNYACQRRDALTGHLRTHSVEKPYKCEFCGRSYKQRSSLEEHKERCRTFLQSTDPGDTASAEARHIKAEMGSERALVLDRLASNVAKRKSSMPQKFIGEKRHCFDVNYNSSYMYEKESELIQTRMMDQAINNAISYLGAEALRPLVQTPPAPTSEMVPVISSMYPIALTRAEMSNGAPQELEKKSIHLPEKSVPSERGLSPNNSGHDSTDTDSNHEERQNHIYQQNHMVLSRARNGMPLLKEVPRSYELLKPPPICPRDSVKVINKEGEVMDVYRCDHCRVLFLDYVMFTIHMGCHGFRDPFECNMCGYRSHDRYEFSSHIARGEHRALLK
# IKZF3, sequence (Q96SW2 whole entry): as the sequence (Q96SW2 whole entry) above
# IKZF3, sequence (Q16531 whole entry partner): as the sequence (Q16531 whole entry partner) above
# Method in brief: as §1
# [4] = target: GSPT1 (Homo sapiens (Human), UniProt P15170+Q96SW2); experiment: Western blot, substrate protein expression in hPBMC: GSPT1; type: cell-based; details: hPBMC, compound 500 nM, 24 hours, Western blot
# GSPT1, sequence (P15170 whole entry): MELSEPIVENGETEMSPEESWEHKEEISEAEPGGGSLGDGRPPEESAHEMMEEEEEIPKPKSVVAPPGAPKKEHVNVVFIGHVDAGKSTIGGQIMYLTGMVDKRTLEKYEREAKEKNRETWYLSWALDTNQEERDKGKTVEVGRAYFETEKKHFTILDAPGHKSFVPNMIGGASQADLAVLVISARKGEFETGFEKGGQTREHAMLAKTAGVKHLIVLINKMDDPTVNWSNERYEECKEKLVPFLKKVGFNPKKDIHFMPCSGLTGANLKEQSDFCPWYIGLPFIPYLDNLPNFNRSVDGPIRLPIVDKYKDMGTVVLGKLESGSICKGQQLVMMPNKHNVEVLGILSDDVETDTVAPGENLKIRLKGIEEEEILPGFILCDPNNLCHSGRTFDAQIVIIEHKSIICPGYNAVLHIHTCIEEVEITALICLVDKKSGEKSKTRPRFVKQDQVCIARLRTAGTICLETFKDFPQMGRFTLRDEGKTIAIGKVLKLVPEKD
# GSPT1, sequence (Q96SW2 whole entry): as the sequence (Q96SW2 whole entry) above
# GSPT1, sequence (Q16531 whole entry partner): as the sequence (Q16531 whole entry partner) above
# Method in brief: as §1
# human Cereblon WT GST-tagged protein, sequence (Q96SW2 whole entry): as the sequence (Q96SW2 whole entry) above
smiles,measurement,setting,value
"CC1(C)CN(Cc2cc3c(cc2F)C(=O)N(C2CCC(=O)NC2=O)C3)CCN1C(c1ccccc1)c1ccccc1 (centres unmarked) [GT-05960, 3-(5-((4-benzhydryl-3,3-dimethylpiperazin-1-yl)methyl)-6-fluoro-1-oxoisoindolin-2-yl)piperidine-2,6-dione]",IC50,[1],1000 to 1900 nM
same,substrate protein remaining % IKZF1,[2],B (B represents substrate protein remaining % > 50%)
same,substrate protein remaining % IKZF3,[3],A (A represents 0% ≤ substrate protein remaining % ≤ 50%)
same,substrate protein remaining % GSPT1,[4],A (A represents 0% ≤ substrate protein remaining % ≤ 50%)
"CC1(C)CN(Cc2cc(F)c3c(c2)CN(C2CCC(=O)NC2=O)C3=O)CCN1C(c1ccccc1)c1ccccc1 (centres unmarked) [GT-05961, 3-(5-((4-benzhydryl-3,3-dimethylpiperazin-1-yl)methyl)-7-fluoro-1-oxoisoindolin-2-yl)piperidine-2,6-dione]",IC50,[1],500 to 1000 nM
same,substrate protein remaining % IKZF1,[2],B (B represents substrate protein remaining % > 50%)
same,substrate protein remaining % IKZF3,[3],A (A represents 0% ≤ substrate protein remaining % ≤ 50%)
same,substrate protein remaining % GSPT1,[4],A (A represents 0% ≤ substrate protein remaining % ≤ 50%)
"O=C1CCC(N2Cc3cc(CN4CC5CCC4CN5C(c4ccccc4)c4ccccc4)c(F)cc3C2=O)C(=O)N1 (centres unmarked) [GT-05963, 3-(5-((5-benzhydryl-2,5-diazabicyclo[2.2.2]octan-2-yl)methyl)-6-fluoro-1-oxoisoindolin-2-yl)piperidine-2,6-dione]",IC50,[1],500 to 1000 nM
same,substrate protein remaining % IKZF1,[2],B (B represents substrate protein remaining % > 50%)
same,substrate protein remaining % IKZF3,[3],B (B represents substrate protein remaining % > 50%)
same,substrate protein remaining % GSPT1,[4],A (A represents 0% ≤ substrate protein remaining % ≤ 50%)
"CC1CN(Cc2ccc3c(c2F)CN(C2CCC(=O)NC2=O)C3=O)CC(C)N1C(c1ccccc1)c1ccccc1 (centres unmarked) [GT-05965, 3-(5-((4-benzhydryl-3,5-dimethylpiperazin-1-yl)methyl)-4-fluoro-1-oxoisoindolin-2-yl)piperidine-2,6-dione]",IC50,[1],1000 to 1900 nM
same,substrate protein remaining % IKZF1,[2],A (A represents 0% ≤ substrate protein remaining % ≤ 50%)
same,substrate protein remaining % IKZF3,[3],A (A represents 0% ≤ substrate protein remaining % ≤ 50%)
same,substrate protein remaining % GSPT1,[4],A (A represents 0% ≤ substrate protein remaining % ≤ 50%)
"CC1CN(Cc2cc3c(cc2F)C(=O)N(C2CCC(=O)NC2=O)C3)CC(C)N1C(c1ccccc1)c1ccccc1 (centres unmarked) [GT-05966, 3-(5-((4-benzhydryl-3,5-dimethylpiperazin-1-yl)methyl)-6-fluoro-1-oxoisoindolin-2-yl)piperidine-2,6-dione]",IC50,[1],1000 to 1900 nM
same,substrate protein remaining % IKZF1,[2],B (B represents substrate protein remaining % > 50%)
same,substrate protein remaining % IKZF3,[3],B (B represents substrate protein remaining % > 50%)
same,substrate protein remaining % GSPT1,[4],A (A represents 0% ≤ substrate protein remaining % ≤ 50%)
"CC1CN(Cc2cc(F)c3c(c2)CN(C2CCC(=O)NC2=O)C3=O)CC(C)N1C(c1ccccc1)c1ccccc1 (centres unmarked) [GT-05967, 3-(5-((4-benzhydryl-3,5-dimethylpiperazin-1-yl)methyl)-7-fluoro-1-oxoisoindolin-2-yl)piperidine-2,6-dione]",IC50,[1],1000 to 1900 nM
same,substrate protein remaining % IKZF1,[2],B (B represents substrate protein remaining % > 50%)
same,substrate protein remaining % IKZF3,[3],A (A represents 0% ≤ substrate protein remaining % ≤ 50%)
same,substrate protein remaining % GSPT1,[4],A (A represents 0% ≤ substrate protein remaining % ≤ 50%)
"O=C1CCC(N2Cc3c(ccc(CN4CCC5(CCN(C(c6ccccc6)c6ccccc6)CC5)C4)c3F)C2=O)C(=O)N1 (centres unmarked) [GT-05970, 3-(5-((8-benzhydryl-2,8-diazaspiro[4.5]decan-2-yl)methyl)-4-fluoro-1-oxoisoindolin-2-yl)piperidine-2,6-dione]",IC50,[1],1000 to 1900 nM
same,substrate protein remaining % IKZF1,[2],B (B represents substrate protein remaining % > 50%)
same,substrate protein remaining % IKZF3,[3],B (B represents substrate protein remaining % > 50%)
same,substrate protein remaining % GSPT1,[4],A (A represents 0% ≤ substrate protein remaining % ≤ 50%)
"O=C1CCC(N2Cc3cc(CN4CCC5(CCN(C(c6ccccc6)c6ccccc6)CC5)C4)c(F)cc3C2=O)C(=O)N1 (centres unmarked) [GT-05971, 3-(5-((8-benzhydryl-2,8-diazaspiro[4.5]decan-2-yl)methyl)-6-fluoro-1-oxoisoindolin-2-yl)piperidine-2,6-dione]",IC50,[1],1000 to 1900 nM
same,substrate protein remaining % IKZF1,[2],B (B represents substrate protein remaining % > 50%)
same,substrate protein remaining % IKZF3,[3],B (B represents substrate protein remaining % > 50%)
same,substrate protein remaining % GSPT1,[4],A (A represents 0% ≤ substrate protein remaining % ≤ 50%)
"O=C1CCC(N2Cc3c(CN4CCC5(CCN(C(c6ccccc6)c6ccccc6)CC5)C4)cccc3C2=O)C(=O)N1 (centres unmarked) [GT-05973, 3-(4-((8-benzhydryl-2,8-diazaspiro[4.5]decan-2-yl)methyl)-1-oxoisoindolin-2-yl)piperidine-2,6-dione]",IC50,[1],1000 to 1900 nM
same,substrate protein remaining % IKZF1,[2],B (B represents substrate protein remaining % > 50%)
same,substrate protein remaining % IKZF3,[3],A (A represents 0% ≤ substrate protein remaining % ≤ 50%)
same,substrate protein remaining % GSPT1,[4],A (A represents 0% ≤ substrate protein remaining % ≤ 50%)
"O=C1CCC(N2C(=O)c3ccc(N4CC5CCC4CN5C(c4ccccc4)c4ccccc4)cc3C2=O)C(=O)N1 (centres unmarked) [GT-05976, 5-(5-benzhydryl-2,5-diazabicyclo[2.2.2]octan-2-yl)-2-(2,6-dioxopiperidin-3-yl) isoindoline-1,3-dione]",IC50,[1],< 500 nM
same,substrate protein remaining % IKZF1,[2],B (B represents substrate protein remaining % > 50%)
same,substrate protein remaining % IKZF3,[3],B (B represents substrate protein remaining % > 50%)
same,substrate protein remaining % GSPT1,[4],A (A represents 0% ≤ substrate protein remaining % ≤ 50%)
"O=C1CCC(N2Cc3cc(C(=O)N4CC5CCC(C4)N5C(c4ccccc4)c4ccccc4)ccc3C2=O)C(=O)N1 (centres unmarked) [GT-05980, 3-(5-(8-benzhydryl-3,8-diazabicyclo[3.2.1]octane-3-carbonyl)-1-oxoisoindolin-2-yl)piperidine-2,6-dione]",IC50,[1],500 to 1000 nM
same,substrate protein remaining % IKZF1,[2],A (A represents 0% ≤ substrate protein remaining % ≤ 50%)
same,substrate protein remaining % IKZF3,[3],B (B represents substrate protein remaining % > 50%)
same,substrate protein remaining % GSPT1,[4],A (A represents 0% ≤ substrate protein remaining % ≤ 50%)
"O=C1CCC(N2Cc3cc(C(=O)N4CCN(C5c6ccccc6-c6ccccc65)CC4)ccc3C2=O)C(=O)N1 (centres unmarked) [GT-05986, 3-(5-(4-(9H-fluoren-9-yl)piperazine-1-carbonyl)-1-oxoisoindolin-2-yl)piperidine-2,6-dione]",IC50,[1],< 500 nM
same,substrate protein remaining % IKZF1,[2],B (B represents substrate protein remaining % > 50%)
same,substrate protein remaining % IKZF3,[3],B (B represents substrate protein remaining % > 50%)
same,substrate protein remaining % GSPT1,[4],A (A represents 0% ≤ substrate protein remaining % ≤ 50%)
"O=C1CCC(N2Cc3cc(C(=O)N4CC5(CCN(C(c6ccccc6)c6ccccc6)CC5)C4)ccc3C2=O)C(=O)N1 (centres unmarked) [GT-05988, 3-(5-(7-benzhydryl-2,7-diazaspiro[3.5]nonane-2-carbonyl)-1-oxoisoindolin-2-yl)piperidine-2,6-dione]",IC50,[1],< 500 nM
same,substrate protein remaining % IKZF1,[2],B (B represents substrate protein remaining % > 50%)
same,substrate protein remaining % IKZF3,[3],B (B represents substrate protein remaining % > 50%)
same,substrate protein remaining % GSPT1,[4],A (A represents 0% ≤ substrate protein remaining % ≤ 50%)
"O=C1CCC(N2Cc3c(CN4CCC5(CC4)CCN(C(c4ccccc4)c4ccccc4)CC5)cccc3C2=O)C(=O)N1 (centres unmarked) [GT-06027, 3-(4-((9-benzhydryl-3,9-diazaspiro[5.5]undecan-3-yl)methyl)-1-oxoisoindolin-2-yl)piperidine-2,6-dione]",IC50,[1],1000 to 1900 nM
same,substrate protein remaining % IKZF1,[2],B (B represents substrate protein remaining % > 50%)
same,substrate protein remaining % IKZF3,[3],B (B represents substrate protein remaining % > 50%)
same,substrate protein remaining % GSPT1,[4],A (A represents 0% ≤ substrate protein remaining % ≤ 50%)
"O=C1CCC(N2Cc3c(ccc(CN4CC5CN(C(c6ccccc6)c6ccccc6)CC5C4)c3F)C2=O)C(=O)N1 (centres unmarked) [GT-06044, 3-(5-((5-benzhydrylhexahydropyrrolo[3,4-c]pyrrol-2 (1H)-yl)methyl)-4-fluoro-1-oxoisoindolin-2-yl)piperidine-2,6-dione]",IC50,[1],< 500 nM
same,substrate protein remaining % IKZF1,[2],B (B represents substrate protein remaining % > 50%)
same,substrate protein remaining % IKZF3,[3],A (A represents 0% ≤ substrate protein remaining % ≤ 50%)
same,substrate protein remaining % GSPT1,[4],A (A represents 0% ≤ substrate protein remaining % ≤ 50%)
"O=C1CCC(N2Cc3cc(CN4CC5CN(C(c6ccccc6)c6ccccc6)CC5C4)cc(F)c3C2=O)C(=O)N1 (centres unmarked) [GT-06045, 3-(5-((5-benzhydrylhexahydropyrrolo[3,4-c]pyrrol-2 (1H)-yl)methyl)-7-fluoro-1-oxoisoindolin-2-yl)piperidine-2,6-dione]",IC50,[1],< 500 nM
same,substrate protein remaining % IKZF1,[2],B (B represents substrate protein remaining % > 50%)
same,substrate protein remaining % IKZF3,[3],B (B represents substrate protein remaining % > 50%)
same,substrate protein remaining % GSPT1,[4],A (A represents 0% ≤ substrate protein remaining % ≤ 50%)
"C[C@@H]1CN(C(c2ccccc2)c2ccccc2)CCN1Cc1cc2c(cc1F)C(=O)N(C1CCC(=O)NC1=O)C2 (stereo partly drawn) [GT-06046, 3-(5-(((R)-4-benzhydryl-2-methylpiperazin-1-yl)methyl)-6-fluoro-1-oxoisoindolin-2-yl)piperidine-2,6-dione]",IC50,[1],500 to 1000 nM
same,substrate protein remaining % IKZF1,[2],B (B represents substrate protein remaining % > 50%)
same,substrate protein remaining % IKZF3,[3],B (B represents substrate protein remaining % > 50%)
same,substrate protein remaining % GSPT1,[4],A (A represents 0% ≤ substrate protein remaining % ≤ 50%)
